Measurements reported in ChEMBL document CHEMBL1201862, “PubChem BioAssay data set” (2004).
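Protocol summary: plate cells (96-well), add compound at 5 concentrations, incubate 48 h, interpolate endpoints linearly. GI50: concentration for 50% inhibition of growth.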 Calls of active or inactive are those of the source. No stated cut-off is given here; in the data, active = GI50 up to about 1.1 µM and inactive = higher.

Legend:
Assay in all cases: NCI anticancer screen, dose series, 48 h
SK-MEL-28 = test system: SK-MEL-28
SF-539 = test system: SF-539
K562 = test system: K562
UO-31 = test system: UO-31
SK-MEL-2 = test system: SK-MEL-2
UACC-62 = test system: UACC-62
IGROV-1 = test system: IGROV-1
OVCAR-5 = test system: OVCAR-5
HOP-62 = test system: HOP-62
RXF 393 = test system: RXF 393
MDA-MB-435 = test system: MDA-MB-435
A498 = test system: A498
KM12 = test system: KM12
LOX IMVI = test system: LOX IMVI
HT-29 = test system: HT-29
NCI-H23 = test system: NCI-H23
OVCAR-8 = test system: OVCAR-8
PC-3 = test system: PC-3
HOP-92 = test system: HOP-92
SN12C = test system: SN12C
CCRF-CEM = test system: CCRF-CEM
NCI-H522 = test system: NCI-H522
SR = test system: SR
SK-OV-3 = test system: SK-OV-3
786-0 = test system: 786-0
NCI-H460 = test system: NCI-H460
ACHN = test system: ACHN
BT-549 = test system: BT-549
COLO 205 = test system: COLO 205
SK-MEL-5 = test system: SK-MEL-5
RPMI-8226 = test system: RPMI-8226
SNB-19 = test system: SNB-19
MOLT-4 = test system: MOLT-4
OVCAR-3 = test system: OVCAR-3
NCI/ADR-RES = test system: NCI/ADR-RES
DU-145 = test system: DU-145
MDA-N = test system: MDA-N
UACC-257 = test system: UACC-257
M14 = test system: M14
HCT-15 = test system: HCT-15
T47D = test system: T47D
TK-10 = test system: TK-10
U-251 = test system: U-251
Malme-3M = test system: Malme-3M
A549 = test system: A549
SW-620 = test system: SW-620
SF-268 = test system: SF-268
MDA-MB-231 = test system: MDA-MB-231
NCI-H226 = test system: NCI-H226
OVCAR-4 = test system: OVCAR-4
HCT-116 = test system: HCT-116
MCF7 = test system: MCF7
HL-60 = test system: HL-60
SF-295 = test system: SF-295
CAKI-1 = test system: CAKI-1
EKVX = test system: EKVX
HCC 2998 = test system: HCC 2998
SNB-75 = test system: SNB-75
Hs-578T = test system: Hs-578T

OC1c2ccccc2C(O)C2OC12 (stereo not drawn)
GI50 (SK-MEL-28): > 100 µM (inactive) | GI50 (SF-539): > 100 µM (inactive) | GI50 (K562): > 100 µM (inactive) | GI50 (UO-31): > 100 µM (inactive) | GI50 (SK-MEL-2): > 100 µM (inactive) | GI50 (UACC-62): > 100 µM (inactive) | GI50 (IGROV-1): > 100 µM (inactive) | GI50 (OVCAR-5): > 100 µM (inactive) | GI50 (HOP-62): > 100 µM (inactive) | GI50 (RXF 393): > 100 µM (inactive) | GI50 (MDA-MB-435): > 100 µM (inactive) | GI50 (A498): > 100 µM (inactive) | GI50 (KM12): > 100 µM (inactive) | GI50 (LOX IMVI): > 100 µM (inactive) | GI50 (HT-29): > 100 µM (inactive) | GI50 (NCI-H23): > 100 µM (inactive) | GI50 (OVCAR-8): > 100 µM (inactive) | GI50 (PC-3): > 100 µM (inactive) | GI50 (HOP-92): > 100 µM (inactive) | GI50 (SN12C): > 100 µM (inactive) | GI50 (CCRF-CEM): > 100 µM (inactive) | GI50 (NCI-H522): > 100 µM (inactive) | GI50 (SR): > 100 µM (inactive) | GI50 (SK-OV-3): > 100 µM (inactive) | GI50 (786-0): > 100 µM (inactive) | GI50 (NCI-H460): > 100 µM (inactive) | GI50 (ACHN): > 100 µM (inactive) | GI50 (BT-549): > 100 µM (inactive) | GI50 (COLO 205): > 100 µM (inactive) | GI50 (SK-MEL-5): > 100 µM (inactive) | GI50 (RPMI-8226): > 100 µM (inactive) | GI50 (SNB-19): > 100 µM (inactive) | GI50 (MOLT-4): > 100 µM (inactive) | GI50 (OVCAR-3): > 100 µM (inactive) | GI50 (NCI/ADR-RES): > 100 µM (inactive) | GI50 (DU-145): > 100 µM (inactive) | GI50 (MDA-N): > 100 µM (inactive) | GI50 (UACC-257): > 100 µM (inactive) | GI50 (M14): > 100 µM (inactive) | GI50 (HCT-15): > 100 µM | GI50 (T47D): > 100 µM (inactive) | GI50 (TK-10): > 100 µM (inactive) | GI50 (U-251): > 100 µM (inactive) | GI50 (Malme-3M): > 100 µM (inactive) | GI50 (A549): > 100 µM (inactive) | GI50 (SW-620): > 100 µM (inactive) | GI50 (SF-268): > 100 µM (inactive) | GI50 (MDA-MB-231): > 100 µM (inactive) | GI50 (NCI-H226): 78.5 µM (inactive) | GI50 (OVCAR-4): > 100 µM (inactive) | GI50 (HCT-116): > 100 µM (inactive) | GI50 (MCF7): > 100 µM (inactive) | GI50 (HL-60): > 100 µM (inactive) | GI50 (SF-295): > 100 µM (inactive) | GI50 (CAKI-1): > 100 µM (inactive)

Cc1cc(OP2(=O)NCc3ccncc3O2)ccc1Cl (stereo not drawn)
GI50 (SK-MEL-28): > 100 µM (inactive) | GI50 (SF-539): > 100 µM (inactive) | GI50 (K562): > 100 µM (inactive) | GI50 (EKVX): > 100 µM (inactive) | GI50 (UO-31): > 100 µM (inactive) | GI50 (SK-MEL-2): > 100 µM (inactive) | GI50 (UACC-62): > 100 µM (inactive) | GI50 (IGROV-1): > 100 µM (inactive) | GI50 (OVCAR-5): > 100 µM (inactive) | GI50 (HOP-62): > 100 µM (inactive) | GI50 (RXF 393): > 100 µM (inactive) | GI50 (MDA-MB-435): > 100 µM (inactive) | GI50 (A498): > 100 µM (inactive) | GI50 (KM12): > 100 µM (inactive) | GI50 (LOX IMVI): > 100 µM (inactive) | GI50 (HT-29): > 100 µM (inactive) | GI50 (NCI-H23): > 100 µM (inactive) | GI50 (OVCAR-8): > 100 µM (inactive) | GI50 (PC-3): > 100 µM (inactive) | GI50 (HOP-92): > 100 µM (inactive) | GI50 (SN12C): > 100 µM (inactive) | GI50 (CCRF-CEM): 44.5 µM (inactive) | GI50 (SR): > 100 µM (inactive) | GI50 (786-0): > 100 µM (inactive) | GI50 (NCI-H460): > 100 µM (inactive) | GI50 (ACHN): > 100 µM (inactive) | GI50 (BT-549): > 100 µM (inactive) | GI50 (COLO 205): > 100 µM (inactive) | GI50 (SK-MEL-5): > 100 µM (inactive) | GI50 (HCC 2998): > 100 µM (inactive) | GI50 (RPMI-8226): > 100 µM (inactive) | GI50 (SNB-19): > 100 µM (inactive) | GI50 (MOLT-4): > 100 µM (inactive) | GI50 (SNB-75): > 100 µM (inactive) | GI50 (OVCAR-3): > 100 µM (inactive) | GI50 (NCI/ADR-RES): > 100 µM (inactive) | GI50 (DU-145): > 100 µM (inactive) | GI50 (MDA-N): > 100 µM (inactive) | GI50 (UACC-257): > 100 µM (inactive) | GI50 (M14): > 100 µM (inactive) | GI50 (HCT-15): > 100 µM | GI50 (T47D): > 100 µM (inactive) | GI50 (U-251): > 100 µM (inactive) | GI50 (A549): > 100 µM (inactive) | GI50 (SW-620): > 100 µM (inactive) | GI50 (MDA-MB-231): > 100 µM (inactive) | GI50 (NCI-H226): > 100 µM (inactive) | GI50 (OVCAR-4): > 100 µM (inactive) | GI50 (HCT-116): > 100 µM (inactive) | GI50 (MCF7): > 100 µM (inactive) | GI50 (SF-295): > 100 µM (inactive) | GI50 (CAKI-1): > 100 µM (inactive)

COc1ccc(N(C)C(=O)N(C)c2ccc([N+](=O)[O-])cc2)cc1
GI50 (SK-MEL-28): 50.2 µM (inactive) | GI50 (SF-539): 29.6 µM (inactive) | GI50 (K562): 18.4 µM (inactive) | GI50 (Hs-578T): 6.4 µM (inactive) | GI50 (EKVX): 65.2 µM (inactive) | GI50 (UO-31): 41.4 µM (inactive) | GI50 (SK-MEL-2): 14.5 µM (inactive) | GI50 (UACC-62): 33.9 µM (inactive) | GI50 (IGROV-1): 43.2 µM (inactive) | GI50 (OVCAR-5): 39.9 µM (inactive) | GI50 (HOP-62): 39.4 µM (inactive) | GI50 (RXF 393): 14.3 µM (inactive) | GI50 (MDA-MB-435): 4.21 µM (inactive) | GI50 (A498): 66.4 µM (inactive) | GI50 (KM12): 18.8 µM (inactive) | GI50 (LOX IMVI): 33.1 µM (inactive) | GI50 (HT-29): 28.6 µM (inactive) | GI50 (NCI-H23): 34.6 µM (inactive) | GI50 (OVCAR-8): 71 µM (inactive) | GI50 (HOP-92): 25.5 µM (inactive) | GI50 (SN12C): 61.4 µM (inactive) | GI50 (CCRF-CEM): 23.9 µM (inactive) | GI50 (NCI-H522): 23.8 µM (inactive) | GI50 (SR): 19.5 µM (inactive) | GI50 (SK-OV-3): 17.7 µM (inactive) | GI50 (786-0): 58.9 µM (inactive) | GI50 (NCI-H460): 25.8 µM (inactive) | GI50 (ACHN): > 100 µM (inactive) | GI50 (BT-549): 44.8 µM (inactive) | GI50 (SK-MEL-5): 38.8 µM (inactive) | GI50 (HCC 2998): 33 µM (inactive) | GI50 (RPMI-8226): 51.1 µM (inactive) | GI50 (SNB-19): > 100 µM (inactive) | GI50 (MOLT-4): > 100 µM (inactive) | GI50 (SNB-75): 29.6 µM (inactive) | GI50 (OVCAR-3): 26.7 µM (inactive) | GI50 (NCI/ADR-RES): 23.6 µM (inactive) | GI50 (DU-145): 90.6 µM (inactive) | GI50 (MDA-N): 9.25 µM (inactive) | GI50 (UACC-257): 26.1 µM (inactive) | GI50 (M14): 34 µM (inactive) | GI50 (HCT-15): 30.1 µM | GI50 (T47D): 66.4 µM (inactive) | GI50 (TK-10): 10.5 µM (inactive) | GI50 (U-251): 30.4 µM (inactive) | GI50 (Malme-3M): 36.2 µM (inactive) | GI50 (A549): 58.1 µM (inactive) | GI50 (SW-620): 23.3 µM (inactive) | GI50 (SF-268): 82 µM (inactive) | GI50 (MDA-MB-231): 45.3 µM (inactive) | GI50 (NCI-H226): 23 µM (inactive) | GI50 (OVCAR-4): 11.2 µM (inactive) | GI50 (HCT-116): 27.4 µM (inactive) | GI50 (MCF7): 39.1 µM (inactive) | GI50 (HL-60): 31 µM (inactive) | GI50 (CAKI-1): 41.6 µM (inactive)
